# Reference: patent US4169197A, “6-Deoxyneamines aminoglycoside compounds” (The Upjohn Company, priority 1978, dated 1979)
# Tests used:
# Format in all cases: cell-based
# B. cereus UC 3145 = assay: standard disc plate assay, zones of inhibition; conditions: Bacillus cereus, UC3145; 1 mg/ml; 12.5 mm paper discs; Table II; read-out: Zones of Inhibition
# Description: (§1) The compounds of formulas (V, VII, IX, XI, XIV, XVI, and XIX) are active as antibacterials and can be used in various environments to erradicate or control susceptible microorganisms. Tables I and II set forth the in vitro antibacterial test results for representative compounds of the present invention. The results were obtained with a standard disc plate assay using 12.5 mm paper discs.
# B. subtilis UC 564 = assay: standard disc plate assay, zones of inhibition; conditions: Bacillus subtilis, UC564, 12.5 mm paper discs, Table II, read-out: Zones of Inhibition
# Description: as §1
# E. coli UC 51 = assay: standard disc plate assay, zones of inhibition; conditions: Escherichia coli, UC51, 12.5 mm paper discs, Table II, read-out: Zones of Inhibition
# Description: as §1
# K. pneumoniae UC 57 = assay: standard disc plate assay, zones of inhibition; conditions: Klebsiella pneumoniae, UC57, 12.5 mm paper discs, Table II, read-out: Zones of Inhibition
# Description: as §1
# P. vulgaris UC 93 [1] = assay: standard disc plate assay, zones of inhibition; conditions: Proteus vulgaris, UC93; 1 mg/ml; 12.5 mm paper discs; Table II; read-out: Zones of Inhibition
# Description: as §1
# Ps. aeruginosa UC 95 [2] = assay: standard disc plate assay, zones of inhibition; conditions: Pseudomonas aeruginosa, UC95; 1 mg/ml; 12.5 mm paper discs; Table II; read-out: Zones of Inhibition
# Description: as §1
# S. aureus UC 80 = assay: standard disc plate assay, zones of inhibition; conditions: Staphylococcus aureus, UC80, 12.5 mm paper discs, Table II, read-out: Zones of Inhibition
# Description: as §1
# S. gallinarum UC 265 = assay: standard disc plate assay, zones of inhibition; conditions: Salmonella enterica, 12.5 mm paper discs, Table II, read-out: Zones of Inhibition
# Description: as §1
# S. lutea UC 130 = assay: standard disc plate assay, zones of inhibition; conditions: Micrococcus luteus, UC130; 1 mg/ml; 12.5 mm paper discs; Table II; read-out: Zones of Inhibition
# Description: as §1
# S. schottmuelleri UC 126 [3] = assay: standard disc plate assay, zones of inhibition; conditions: 1 mg/ml; 12.5 mm paper discs; Table II
# Description: as §1
# E. coli UC 45 = assay: standard microplate test in BHI Agar; conditions: Escherichia coli, UC45, 37°, 20 hours, Table III, read-out: Minimum Inhibitory Concentration
# Method: (§2) The compounds VII, XI, XVβ, XVα and XVI were tested in a standard microplate test in BHI (Brain Heart Infusion) Agar at a concentration of 1 mg./ml. and dilutions thereof at 37° incubation temperature. The end points are read out 20 hours. BHI Agar is supplied by Difco Laboratories, Detroit, Mich.
# K. pneumoniae UC 58 = assay: standard microplate test in BHI Agar; conditions: Klebsiella pneumoniae, UC58, 20 h, read-out: Minimum Inhibitory Concentration
# Method: as §2
# P. mirabilis UC 6671 = assay: standard microplate test in BHI Agar; conditions: Proteus mirabilis, UC6671, 20 h, read-out: Minimum Inhibitory Concentration
# Method: as §2
# P. morganii UC 3186 = assay: standard microplate test in BHI Agar; conditions: Morganella morganii, UC3186, 20 h, read-out: Minimum Inhibitory Concentration
# Method: as §2
# P. rettgeri UC 339 = assay: standard microplate test in BHI Agar; conditions: Providencia rettgeri, UC339, 20 h, read-out: Minimum Inhibitory Concentration
# Method: as §2
# P. vulgaris UC 93 [4] = assay: standard microplate test in BHI Agar; conditions: Proteus vulgaris, UC93, 20 h, read-out: Minimum Inhibitory Concentration
# Method: as §2
# Ps. aeruginosa UC 95 [5] = assay: standard microplate test in BHI Agar; conditions: Pseudomonas aeruginosa, UC95, 20 h, read-out: Minimum Inhibitory Concentration
# Method: as §2
# S. aureus UC 76 = assay: standard microplate test in BHI Agar; conditions: Staphylococcus aureus, UC76, 20 h, read-out: Minimum Inhibitory Concentration
# Method: as §2
# S. faecalis UC 694 = assay: standard microplate test in BHI Agar; conditions: Enterococcus faecalis, UC694, 20 h, read-out: Minimum Inhibitory Concentration
# Method: as §2
# S. flexneri UC 143 = assay: standard microplate test in BHI Agar; conditions: Shigella flexneri, UC143, 37°, 20 hours, Table III, read-out: Minimum Inhibitory Concentration
# Method: as §2
# S. marcescens UC 131 = assay: standard microplate test in BHI Agar; conditions: Serratia marcescens, UC131, 20 h, read-out: Minimum Inhibitory Concentration
# Method: as §2
# S. pneumoniae I UC 41 = assay: standard microplate test in BHI Agar; conditions: Streptococcus pneumoniae, UC41, 20 h, read-out: Minimum Inhibitory Concentration
# Method: as §2
# S. pyogenes UC 152 = assay: standard microplate test in BHI Agar; conditions: Streptococcus pyogenes, UC152, 20 h, read-out: Minimum Inhibitory Concentration
# Method: as §2
# S. schottmuelleri UC 126 [6] = assay: standard microplate test in BHI Agar; conditions: 37°, 20 hours, Table III, read-out: Minimum Inhibitory Concentration
# Method: as §2
# S. typhi UC 215 = assay: standard microplate test in BHI Agar; conditions: Salmonella enterica, 20 h, read-out: Minimum Inhibitory Concentration
# Method: as §2
structure (smiles),measurement,setting,value
"C[C@@]1(O)C[C@H](N)C[C@H](N)[C@H]1O[C@H]1O[C@H](CN)[C@@H](O)[C@H](O)[C@H]1N [6-deoxy-5-methylneamine (VII), 6-deoxy-5-methyl-neamine]",zone of inhibition at 1000 µg/mL,B. cereus UC 3145,23 mm
same,zone of inhibition at 100 µg/mL,B. subtilis UC 564; 0.1 mg/ml,26 mm
same,zone of inhibition at 1000 µg/mL,B. subtilis UC 564; 1 mg/ml,37 mm
same,zone of inhibition at 100 µg/mL,E. coli UC 51; 0.1 mg/ml,16 mm
same,zone of inhibition at 1000 µg/mL,E. coli UC 51; 1 mg/ml,24 mm
same,zone of inhibition at 100 µg/mL,K. pneumoniae UC 57; 0.1 mg/ml,22 mm
same,zone of inhibition at 1000 µg/mL,K. pneumoniae UC 57; 1 mg/ml,29 mm
same,zone of inhibition at 1000 µg/mL,P. vulgaris UC 93 [1],24 mm
same,zone of inhibition at 1000 µg/mL,Ps. aeruginosa UC 95 [2],15 mm
same,zone of inhibition at 100 µg/mL,S. aureus UC 80; 0.1 mg/ml,18 mm
same,zone of inhibition at 1000 µg/mL,S. aureus UC 80; 1 mg/ml,25 mm
same,zone of inhibition at 100 µg/mL,S. gallinarum UC 265; 0.1 mg/ml,18 mm
same,zone of inhibition at 1000 µg/mL,S. gallinarum UC 265; 1 mg/ml,28 mm
same,zone of inhibition at 1000 µg/mL,S. lutea UC 130,15 mm
same,zone of inhibition at 1000 µg/mL,S. schottmuelleri UC 126 [3],21 mm
same,MIC,E. coli UC 45,125 µg/mL
same,MIC,K. pneumoniae UC 58,15.6 µg/mL
same,MIC,P. mirabilis UC 6671,250 µg/mL
same,MIC,P. morganii UC 3186,125 µg/mL
same,MIC,P. rettgeri UC 339,> 500 µg/mL
same,MIC,P. vulgaris UC 93 [4],62.5 µg/mL
same,MIC,Ps. aeruginosa UC 95 [5],> 500 µg/mL
same,MIC,S. aureus UC 76,15.6 µg/mL
same,MIC,S. faecalis UC 694,> 500 µg/mL
same,MIC,S. flexneri UC 143,125 µg/mL
same,MIC,S. marcescens UC 131,125 µg/mL
same,MIC,S. pneumoniae I UC 41,62.5 µg/mL
same,MIC,S. pyogenes UC 152,7.8 µg/mL
same,MIC,S. schottmuelleri UC 126 [6],62.5 µg/mL
same,MIC,S. typhi UC 215,62.5 µg/mL
